Results reported in patent publication US20250064762A1, “A SUBSTITUTED AROMATIC DICARBONIC ACID AMIDE AS AN INHIBITOR OF THE FERROPTOSIS SUPPRESSOR PROTEIN-1 (FSP1)” (JULIUS-MAXIMILIANS-UNIVERSITÄT WÜRZBURG, priority 2021, published 2025).

Experiments:
HT1080 cells = assay: Lipid peroxidation, BODIPY 581/591-C11 probe, flow cytometry; assay type: cell-based, human; conditions: 100 μM CPBA; 16 h; subeffective RSL3, FIN56 or BSO
Protocol: Approximately 10,000 HT1080 cells were seeded per well of a 48-well dish. The next day, cells were treated for 16 h with DMSO (0.1%, solvent control), CPBA (100 μM), or liproxstatin-1 (100 nM) in the absence or presence of subeffective concentrations of RSL3 (50 nM), FIN56 (50 nM), or BSO (1 μM). Cells were incubated with the BODIPY 581/591-C11 probe (1 μM) for 30 min at 37° C. in a tissue culture incubator, harvested by trypsinization, and resuspended in 500 μL phosphate-buffered saline supplemented with 0.5 mg/mL soybean trypsin inhibitor (Sigma Aldrich). Cells were analyzed using the 488-nm laser of a flow cytometer (FACSCalibur, BD Biosciences) for excitation. […] At least 5,000 cells were analyzed per sample. […]
Effects of CPBA on cellular lipid peroxidation were investigated using a BODIPY 581/591-C11 probe as described above. […] Oxidation of the polyunsaturated butadienyl portion of the dye results in a shift of the fluorescence emission peak from about 595 nm (nonoxidized form) to about 520 nm (oxidized form) (see FIG. 8).
HT1080 cells were incubated for 16 h with DMSO (0.1%, solvent control), CPBA (100 μM), or liproxstatin-1 (lip-1, 100 nM) in the absence or presence of subeffective concentrations of RSL3 (50 nM), FIN56 (50 nM), or BSO (1 μM). Fluorescence intensity was quantified by flow cytometry using a 530 nm band-pass filter as described above and quantified. […]

[1] = tested on: mouse embryonic fibroblasts (MEFs); assay: FIN-induced ferroptosis in Pgp-wildtype or heterozygous Pgp-inactivated MEFs; assay type: cell-based
Protocol: (§1) Cells were seeded onto 96-well plates (5,000 cells per well), and treated with serial dilutions of ferroptosis-inducing compounds (erastin, BSO, RSL3, FIN56) or cytotoxic drugs (staurosporine, nocodazole, tunicamycin, paclitaxel, etoposide, menadione, rotenone, FCCP, carboplatin) in the absence or presence of CPBA or iFSP1 (100 μM or 10 μM, respectively; unless stated otherwise) or the DMSO solvent control. Ferroptotic cell death was evaluated by incubating in the absence or presence of liproxstatin-1 (100 nM), ferrostatin-1 (200 nM), or deferoxamine (100 μM). Cell viability was assessed after 16 h using AquaBluer as an indicator of viable cells according to the manufacturer's recommendations (MultiTarget Pharmaceuticals, LLC). Fluorescence (excitation, 540 nm; emission, 590 nm) was analyzed on a Clariostar microplater reader.
The above experiment was repeated in mouse embryonic fibroblasts (MEFs) generated from Pgp-wildtype (Pgp^fl/fl) or heterozygous Pgp-inactivated mouse embryos (Pgp^fl/D34N).

[2] = tested on: HT1080, Du145 or PC3 cells; assay: Cell viability with CPBA alone, no ferroptosis inducers; assay type: cell-based; conditions: 16 h
Protocol: as §1
To study the effect of increasing CPBA concentrations in the absence of ferroptosis inducers on the viability of HT1080, Du145 or PC3 cells. Cells were incubated with the indicated concentrations of CPBA alone or in the presence of ferroptosis inhibitors deferoxamine (DFO, an iron-chelator and ferroptosis inhibitor); ferrostatin (fer, a ferroptosis inhibitor); liproxstatin-1 (lip-1, a ferroptosis inhibitor); or zVAD-FMK (a pan-caspase and apoptosis inhibitor), and cell viability was analyzed after 16 h.

murine PGP = target: T1, murine PGP (Mus musculus, UniProt Q8CHP8); assay: In vitro phosphoglycolate phosphatase assay (malachite green); assay type: biochemical
T1 construct: made in house
T1 sequence (Q8CHP8 1-321): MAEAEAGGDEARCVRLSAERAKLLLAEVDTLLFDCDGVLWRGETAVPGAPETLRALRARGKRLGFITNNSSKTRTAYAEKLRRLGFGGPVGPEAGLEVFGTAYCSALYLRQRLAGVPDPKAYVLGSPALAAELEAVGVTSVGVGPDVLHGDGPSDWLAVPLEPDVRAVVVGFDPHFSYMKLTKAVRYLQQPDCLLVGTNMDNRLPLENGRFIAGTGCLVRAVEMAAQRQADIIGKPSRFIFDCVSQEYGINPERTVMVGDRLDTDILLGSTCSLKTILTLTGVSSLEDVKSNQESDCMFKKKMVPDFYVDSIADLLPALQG
Protocol: Recombinant, purified murine phosphoglycolate phosphatase (PGP) was expressed and purified as described (Seifried et al., 2014). Experiments were performed in TNM30 (30 mM triethanolamine, 30 mM NaCl, 5 mM MgCl2; PH 7.5), supplemented with 0.01% (v/v) Triton X-100 and 5 mM dithiothreitol (DTT). Assays were conducted at room temperature in a final reaction volume of 50 μL in 96-well microtiter plates. PGP (5.7 nM) was pre-incubated with the compounds or the DMSO solvent control for 10 min, and enzyme reactions were started by the addition of the substrate phosphoglycolate (PG, 200 μM). Buffer without enzyme served as a background control. Inorganic phosphate release from PG was detected with malachite green solution (Biomol Green; Enzo Life Sciences). The absorbance at 620 nm (A620) was measured on an Envision 2104 multilabel microtiter plate reader (Perkin Elmer Life Sciences). Released phosphate was determined by converting the values to nmol Pi with a phosphate standard curve. Data were analyzed with GraphPad Prism version 7.0.5. For IC50 determinations, loginhibitor versus response was calculated for a Hill slope of −1.
Free inorganic phosphate released by PG dephosphorylation was quantified using malachite green.

O=C(Nc1ccccc1C(=O)O)c1ccc(Oc2ccc(C(=O)Nc3ccccc3C(=O)O)cc2)cc1 [CPBA, 2-[[4-[4-[(2-carboxyphenyl)carbamoyl]phenoxy]benzoyl]amino]-benzoic acid]
amount of lipid peroxidation (HT1080 cells): the amount of lipid peroxidation in the cells is increased
sensitization to FIN-induced ferroptosis in Pgp^fl/fl and Pgp^fl/D34N cells [1]: able to sensitize both Pgp^fl/fl and Pgp^fl/D34N cells to FIN-induced ferroptosis
cell death with the compound alone ([2]; 400 μM CPBA): Non-ferroptotic, non-apoptotic cell death is observed
concentrations at which the compound alone is not cytotoxic ([2]; no ferroptosis inducers): up to 200 μM
inhibition of PGP (murine PGP): inhibitor of PGP
